Measurements reported in US20260232767A1, “INTERLEUKIN-23 RECEPTOR ANTAGONIST PEPTIDES FOR USE IN THE TREATMENT OF PSORIASIS” (Janssen Pharmaceutica NV, priority 2023, published 2026).

Test system: subjects with moderate-to-severe plaque psoriasis
Experiment: PASI response, Example 1 16-week dose-ranging study
Assay type: in vivo, human
Details: Week 16; for PASI 100% Improvement, n subjects / PASI ≥75% Improvement, n subjects / PASI ≥90% Improvement, n subjects / PASI ≥75% Improvement, % subjects / PASI ≥90% Improvement, % subjects: N=2
Description: The Psoriasis Area and Severity Index (PASI) is a system used for assessing and grading the severity of psoriatic lesions and their response to therapy. In the PASI system, the body is divided into four regions: the head, trunk, upper extremities, and lower extremities. Each of these areas is assessed and scored separately for erythema, induration, and scaling, which are each rated on a scale of 0 to 4 and extent of involvement on a scale of 0 to 6. The PASI produces a numeric score (a “PASI score”) that can range from 0 to 72. A higher score indicates more severe disease.
This was a randomized, double-blind, placebo-controlled, dose-ranging, parallel group, multicenter, interventional study in subjects with moderate-to-severe plaque psoriasis. A target of 240 subjects were enrolled in this study with 40 subjects planned per intervention group.
Clinician-reported outcomes including Psoriasis Area and Severity Index (PASI), Body Surface Area (BSA), Investigator's Global Assessment (IGA), Nail Psoriasis Area and Severity Index (NAPSI), Fingernail Physician's Global Assessment (f-PGA), Static Physician's Global Assessment of Genitalia (s-PGA-G), Physician's Global Assessment of Hands and/or Feet (hf-PGA), and Scalp Specific Investigator Global Assessment (ss-IGA) were obtained at Week 0, 8, and 16. PASI and IGA were also obtained at Weeks 1, 2, 4, and 12, and at Week 20, four weeks after the administration of the tablets has stopped.
The primary efficacy endpoint was the proportion of participants achieving a PASI 75 response at Week 16, defined as at least a 75% reduction from baseline in PASI total score.
For the primary analysis, composite strategy (non-responder imputation) was applied to address intercurrent event #1 (Discontinuation of study intervention due to lack of efficacy or due to an AE of worsening of psoriasis) and #2 (initiation of a protocol-prohibited medication or therapy that could improve psoriasis); and treatment policy strategy (observed data) was applied to intercurrent event #3 (Discontinuation of study intervention due to other reasons). Participants with missing data after application of ICEs are also considered as non-responders.
In addition to the response analysis, pairwise comparisons of each treatment group versus the placebo group were performed for the primary endpoint of PASI 75 at Week 16. Pairwise comparisons were not adjusted for multiplicity. The Cochran-Mantel-Haenszel chi-square statistic stratified by baseline weight category (≤90 kg, >90 kg) at a 2-sided significance level of 0.05 was used (Table 2).

[1] = 25 mg BID, peak plasma conc. <Q1
[2] = 25 mg BID, peak plasma conc. Q1 to <Q2
[3] = 25 mg BID, peak plasma conc. Q2 to <Q3
[4] = 25 mg BID, peak plasma conc. ≥Q3
[5] = 25 mg BID, trough plasma conc <Q1
[6] = 25 mg BID, trough plasma conc Q1 to <Q2
[7] = 25 mg BID, trough plasma conc Q2 to <Q3
[8] = 25 mg BID, trough plasma conc ≥Q3
[9] = 25 mg QD, peak plasma conc. <Q1
[10] = 25 mg QD, peak plasma conc. Q1 to <Q2
[11] = 25 mg QD, peak plasma conc. Q2 to <Q3
[12] = 25 mg QD, peak plasma conc. ≥Q3
[13] = 25 mg QD, trough plasma conc <Q1
[14] = 25 mg QD, trough plasma conc Q1 to <Q2
[15] = 25 mg QD, trough plasma conc Q2 to <Q3

CC(=O)NCCCC[C@@H]1NC(=O)[C@H](Cc2c[nH]c3c(C)cccc23)NC(=O)[C@H]([C@@H](C)O)NC(=O)[C@H](CC(N)=O)NC(=O)[C@@H](NC(C)=O)C(C)(C)SSC(C)(C)[C@@H](C(=O)N[C@@H](Cc2ccc(OCCN)cc2)C(=O)N[C@@H](Cc2ccc3ccccc3c2)C(=O)NC2(C(=O)N[C@@H](CCC(=O)O)C(=O)N[C@@H](CC(N)=O)C(=O)N[C@@H](Cc3cccnc3)C(=O)N(C)CC(N)=O)CCOCC2)NC1=O [IL-23 receptor antagonist peptide, Ac-[Pen]*-N-T-[W(7-Me)]-[Lys(Ac)]-[Pen]*-Phe[4-(2-aminoethoxy)]-[2-Nal]-[THP]-E-N-[3-Pal]-Sarc-NH2 (*[Pen]-[Pen]* formdisulfidebond)]
PASI 75 treatment difference vs placebo (25 mg BID): 41.9%
PASI 90 treatment difference vs placebo (25 mg BID): 24.5% (10.4%,
PASI 100 treatment difference vs placebo (25 mg BID): 9.7% (0.7%,
Subjects achieving PASI 75 (25 mg BID): 51.2%
Subjects achieving PASI 90 (25 mg BID): (26.8%)
Subjects achieving PASI 100 (25 mg BID): (9.8%)
PASI 75, % (25 mg BID, N=41): (51.2) %
PASI 90, % (25 mg BID, N=41): (26.8) %
PASI 100, % (25 mg BID, N=41): (9.8) %
PASI 100% Improvement, n subjects [1]: 0
PASI ≥75% Improvement, n subjects [1]: 0
PASI ≥90% Improvement, n subjects [1]: 0
PASI 100% Improvement, n subjects [2]: 0
PASI ≥75% Improvement, % subjects [2]: (100.0%)
PASI ≥75% Improvement, n subjects [2]: 2
PASI ≥90% Improvement, n subjects [2]: 0
PASI 100% Improvement, n subjects [3]: 0
PASI ≥75% Improvement, % subjects [3]: (50.0%)
PASI ≥75% Improvement, n subjects [3]: 1
PASI ≥90% Improvement, % subjects [3]: (50.0%)
PASI ≥90% Improvement, n subjects [3]: 1
PASI 100% Improvement, n subjects [4]: 0
PASI ≥75% Improvement, % subjects [4]: (50.0%)
PASI ≥75% Improvement, n subjects [4]: 1
PASI ≥90% Improvement, % subjects [4]: (50.0%)
PASI ≥90% Improvement, n subjects [4]: 1
PASI 100% Improvement, subjects [5]: 1 (16.7%)
PASI ≥75% Improvement, subjects [5]: 3 (50.0%)
PASI ≥90% Improvement, subjects [5]: 2 (33.3%)
PASI 100% Improvement, subjects [6]: 1 (16.7%)
PASI ≥75% Improvement, subjects [6]: 1 (16.7%)
PASI ≥90% Improvement, subjects [6]: 1 (16.7%)
PASI 100% Improvement, subjects [7]: 0
PASI ≥75% Improvement, subjects [7]: 3 (50.0%)
PASI ≥90% Improvement, subjects [7]: 2 (33.3%)
PASI 100% Improvement, subjects [8]: 2 (33.3%)
PASI ≥75% Improvement, subjects [8]: 100.0%
PASI ≥90% Improvement, subjects [8]: 3 (50.0%)
PASI 75 treatment difference vs placebo (25 mg QD): 27.9%
PASI 90 treatment difference vs placebo (25 mg QD): 23.3% (9.6%,
PASI 100 treatment difference vs placebo (25 mg QD): 11.6% (2.4%,
Subjects achieving PASI 90 (25 mg QD): (25.6%)
Subjects achieving PASI 100 (25 mg QD): (11.6%)
PASI 75, % (25 mg QD, N=43): (37.2) %
PASI 90, % (25 mg QD, N=43): (25.6) %
PASI 100, % (25 mg QD, N=43): (11.6) %
PASI 100% Improvement, n subjects [9]: 0
PASI ≥75% Improvement, % subjects [9]: (50.0%)
PASI ≥75% Improvement, n subjects [9]: 1
PASI ≥90% Improvement, % subjects [9]: (50.0%)
PASI ≥90% Improvement, n subjects [9]: 1
PASI 100% Improvement, n subjects [10]: 0
PASI ≥75% Improvement, % subjects [10]: (50.0%)
PASI ≥75% Improvement, n subjects [10]: 1
PASI ≥90% Improvement, % subjects [10]: (50.0%)
PASI ≥90% Improvement, n subjects [10]: 1
PASI 100% Improvement, n subjects [11]: 0
PASI ≥75% Improvement, % subjects [11]: (50.0%)
PASI ≥75% Improvement, n subjects [11]: 1
PASI ≥90% Improvement, % subjects [11]: (50.0%)
PASI ≥90% Improvement, n subjects [11]: 1
PASI 100% Improvement, n subjects [12]: 0
PASI ≥75% Improvement, % subjects [12]: (50.0%)
PASI ≥75% Improvement, n subjects [12]: 1
PASI ≥90% Improvement, % subjects [12]: (50.0%)
PASI ≥90% Improvement, n subjects [12]: 1
PASI 100% Improvement, subjects [13]: 1 (20.0%)
PASI ≥75% Improvement, subjects [13]: 2 (40.0%)
PASI ≥90% Improvement, subjects [13]: 2 (40.0%)
PASI 100% Improvement, subjects [14]: 1 (16.7%)
PASI ≥75% Improvement, subjects [14]: 2 (33.3%)
PASI ≥90% Improvement, subjects [14]: 2 (33.3%)
PASI 100% Improvement, subjects [15]: 0)
PASI ≥75% Improvement, subjects [15]: 2 (40.0%)
PASI ≥90% Improvement, subjects [15]: 0
